In patent US20230233555A1 (AbbVie Inc., priority 2022, published 2023):
“Also recorded” adds a separate entry of the source.

How the values were obtained:
CYP2D6 = CYP2D6 (Homo sapiens, UniProt P10635); assay: In vitro metabolism / substrate assessment, CYP2D6; type: in vitro ADME
P-gp, BCRP = assay: In vitro transporter substrate assessment, P-gp and BCRP; type: in vitro ADME
CYP3A4, CYP2B6, CYP1A2 = assay: In vitro CYP induction; type: in vitro ADME
[1] = system: P-gp, BCRP, BSEP, OATP1B1, OATP1B3, OCT1, OCT2, OAT1, OAT3, MATE1, MATE2K; assay: In vitro transporter inhibition; type: in vitro ADME; settings: clinically relevant concentrations
[2] = system: IL-6 (JAK1/JAK2)-induced STAT3 and IL-7 (JAK1/JAK3)-induced STAT5 phosphorylation; assay: IL-6 induced STAT3 and IL-7 induced STAT5 phosphorylation in whole blood of healthy volunteers; type: in vivo, human; settings: immediate release formulation
Method: The maximal inhibition was observed 1 hour after dosing which returned to near baseline by the end of dosing interval.

QTc interval = assay: Cardiac electrophysiology (QTc); type: in vivo, human
[3] = Plasma protein binding and blood to plasma partitioning; type: in vitro ADME; settings: human, read-out: Bound to plasma proteins (converted)
[4] = Drug interaction studies: effect of co-administered drugs on upadacitinib pharmacokinetics (incl. Study M13-401); type: in vivo, human
From the text: The data from Study M13-401 are provided in Table 38 and Table 39, which show the expected increase in Cmax and AUCss, respectively, in patients with UC across all dose levels with co-administration of CYP3A4 inhibitors.

[5] = Population pharmacokinetic analyses; type: in vivo, human
Method: Renal clearance indicates some involvement of renal transporters in the excretion. Renal secretion is however not estimated to contribute to more than 25% of the elimination. […] As used herein, reference to “severe renal impairment” means a creatinine clearance of less than 30 mL/min.
The effect of different intrinsic factors has been evaluated in dedicated PK studies in renal and hepatic impairment and in Asian subjects, and by population pharmacokinetic analysis from the phase 2/3 studies. […] There are limited data in patients aged 75 years and older and there is no pharmacokinetic data in children and adolescents.

pregnant rabbits = assay: Oral embryo-fetal developmental study in rabbits; type: in vivo
pregnant female rats = assay: Oral pre- and post-natal development study in rats; type: in vivo; settings: GD 6 through lactation day 20, AUC basis, 10 mg/kg/day
[6] = Milk excretion in lactating rats; type: in vivo, rat; settings: female, Sprague-Dawley, rat, milk (relative to maternal plasma); single oral 10 mg/kg radiolabeled, post-partum days 7-8; read-out: Drug exposure in milk vs maternal plasma (AUC0-t)
From the text: (§1) Drug exposure was approximately 30-fold greater in milk than in maternal plasma based on AUC0-t values. Approximately 97% of drug-related material in milk was parent drug.

[7] = system: lactating female Sprague-Dawley rats; assay: Milk excretion in lactating rats; type: in vivo, rat; settings: single oral 10 mg/kg radiolabeled
From the text: as §1

[8] = system: human peripheral blood lymphocytes; assay: In vitro chromosome aberration assay; type: cell-based
[9] = system: patients with moderately to severely active rheumatoid arthritis, naive to MTX; assay: Trial RA-I (NCT02706873); type: in vivo, human; settings: RA-I through Week 24; 30 mg
Method: The primary endpoint was the proportion of patients who achieved an ACR50 response at Week 12. Key secondary endpoints included disease activity score (DAS28-CRP) ≤3.2 at Week 12, DAS28-CRP <2.6 at Week 24, change from baseline in HAQ-DI at Week 12, and change from baseline in van der Heijde-modified total Sharp Score (mTSS) at Week 24.
Inhibition of progression of structural joint damage was assessed using the modified Total Sharp Score (mTSS) and its components, the erosion score and joint space narrowing score, at Week 26 in Trial RA-IV and Week 24 in Trial RA-I. The proportion of patients with no radiographic progression (mTSS change from baseline […]) was also assessed.

[10] = Model-estimated and predicted upadacitinib Cmax and AUCss in UC patients with severe renal impairment; parameters: species or system human; settings: for Predicted Cmax in UC Patients with Severe Renal Impairment based on results from M13-551, Median: model-estimated value multiplied by 1.14; for Predicted AUCss in UC Patients with Severe Renal Impairment based on results from M13-551, Median: model-estimated value multiplied by 1.44
Method: Therefore, it is recommended that the induction dose is reduced in UC patients with severe renal impairment to 30 mg QD.
Therefore, it is recommended that the maintenance dose is reduced in UC patients with severe renal impairment to 15 mg QD.

[11] = human, in vivo
[12] = system: patients with rheumatoid arthritis; settings: in vivo
From the text: (§2) Exposure adjusted incidence rates were adjusted by trial for all the adverse events reported in this section.
(§3) Patients 18 years of age and older were eligible to participate. The presence of at least 6 tender and 6 swollen joints and evidence of systemic inflammation based on elevation of hsCRP was required at baseline.

[13] = system: patients with rheumatoid arthritis; assay: Rheumatoid arthritis Phase 3 trials, integrated datasets (RA-I to RA-V)
From the text: as §2, §3

[14] = e.g. ketoconazole, Study M13-401
[15] = ketoconazole 400 mg QD, upadacitinib IR formulation
[16] = rifampicin 600 mg QD for 8 days
[17] = 12-month exposure dataset (RA-I, II, III, V), 30 mg
[18] = MTX-controlled RA-I and RA-II, 12/14 weeks, 30 mg monotherapy
[19] = RA-III and RA-V placebo-controlled, 12 weeks, 30 mg

CYP2D6, sequence (P10635 whole entry): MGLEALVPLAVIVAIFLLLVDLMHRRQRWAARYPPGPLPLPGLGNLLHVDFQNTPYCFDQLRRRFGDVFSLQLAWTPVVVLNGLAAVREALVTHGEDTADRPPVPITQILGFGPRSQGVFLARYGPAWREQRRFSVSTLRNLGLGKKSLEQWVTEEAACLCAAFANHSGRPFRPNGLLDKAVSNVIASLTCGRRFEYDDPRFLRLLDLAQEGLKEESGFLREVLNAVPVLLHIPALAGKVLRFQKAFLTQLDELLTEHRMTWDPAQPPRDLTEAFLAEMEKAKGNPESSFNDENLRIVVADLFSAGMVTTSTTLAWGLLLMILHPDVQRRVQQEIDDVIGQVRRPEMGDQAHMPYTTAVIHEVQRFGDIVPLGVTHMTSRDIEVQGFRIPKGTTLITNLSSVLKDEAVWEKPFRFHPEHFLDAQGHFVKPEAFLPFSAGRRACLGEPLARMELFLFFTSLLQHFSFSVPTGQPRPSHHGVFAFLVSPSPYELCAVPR

Structure (SMILES): CC[C@@H]1CN(C(=O)NCC(F)(F)F)C[C@@H]1c1cnc2cnc3[nH]ccc3n12 [upadacitinib, (3S,4R)-3-Ethyl-4-(3H-imidazo[1,2-a]pyrrolo[2,3-e]pyrazin-8-yl)-N-(2,2,2-trifluoroethyl)pyrrolidine-1-carboxamide hydrate (2:1)]
- Substrate of / metabolised by CYP2D6 (CYP2D6): substrate; also recorded: potential minor contribution from CYP2D6
- Substrate of P-gp and BCRP (P-gp, BCRP): substrate
- Induction of CYP1A2 (CYP3A4, CYP2B6, CYP1A2): borderline
- Induction of CYP3A4 and CYP2B6 (CYP3A4, CYP2B6, CYP1A2): inducer
- Inhibition of transporters (P-gp, BCRP, OATP1B1, OATP1B3, OCT1, OCT2, OAT1, OAT3, MATE1, MATE2K) [1]: does not inhibit; also recorded: no in vivo relevant inhibition
- Inhibition of IL-6-induced STAT3 and IL-7-induced STAT5 phosphorylation in whole blood [2]: dose- and concentration-dependent inhibition
- Time of maximal inhibition after dosing [2]: 1 h
- Effect on QTc interval (QTc interval; 2.5 times the mean exposure of the 45 mg once daily dose): no clinically relevant effect
- Effect on QTc interval (QTc interval; 6 times the mean maximum exposure of the 15 mg once daily dose): no clinically relevant effect
- fraction unbound [3]: 0.48
- Upadacitinib exposure with methotrexate ([4]; co-administration with methotrexate): no effect
- Upadacitinib plasma exposure with strong CYP2D6 inhibitors, OATP1B inhibitors, MTX, pH modifying medications or statins ([4]; concomitant administration): no effect
- Upadacitinib AUC (AUCinf) increase with strong CYP3A4 inhibitor [4, 14]: 75%
- Upadacitinib Cmax increase with strong CYP3A4 inhibitor [4, 14]: 70%
- Upadacitinib half-life with ketoconazole ([4]; ketoconazole 400 mg QD): no effect on half-life
- Upadacitinib AUC increase with ketoconazole [4, 15]: 1.8 fold
- Upadacitinib Cmax increase with ketoconazole [4, 15]: 1.7 fold
- Upadacitinib AUC decrease with rifampicin [4, 16]: 60%
- Upadacitinib Cmax decrease with rifampicin [4, 16]: 50%
- Plasma exposure, adolescent / pediatric (12 years and older, at least 40 kg) vs adult subjects ([5]; atopic dermatitis studies): similar; also recorded: No meaningful difference
- Age as covariate on CL/F and Vc/F ([5]; continuous and discrete (adolescents ≥40 kg vs adults)): not found to be statistically significant
- Effect of pH modifying medications (antacids, proton pump inhibitors) on plasma exposures ([5]; in vitro assessments and population PK analyses): not expected to affect
- Effect of body weight, gender, race, ethnicity, age on upadacitinib pharmacokinetics / exposure ([5]; in vivo): no relevant effects; also recorded: did not have a clinically meaningful effect
- Pharmacokinetics in geriatric patients (>65 years) vs younger adults ([5]; in vivo): No clinically meaningful differences
- Effect of CYP2D6 metabolic phenotype (extensive vs poor metabolizers) on upadacitinib CL/F, pharmacokinetics ([5]; population PK analysis): comparability; also recorded: no effect
- Exposure multiple with developmental toxicity (cardiovascular malformations, post-implantation loss, decreased fetal body weights) (pregnant rabbits): ≥ 17 times the 15 mg dose
- Exposure multiple with no developmental toxicity (pregnant rabbits; organogenesis): ~2.5 times the 15 mg dose
- Exposure multiple with no maternal or developmental toxicity (pregnant female rats): approximately 1.6 times the MRHD of 30 mg
- Kp [6]: ~30
- Parent drug share of drug-related material in milk [7]: Approximately 97%
- Genotoxicity, chromosome aberration [8]: tested negatively
- Arterial thrombosis, number of patients [9]: 1 patient
- Venous thrombosis, number of patients [9]: 1 patient
- Predicted Cmax in UC Patients with Severe Renal Impairment based on results from M13-551, Median ([10]; 7.5 mg treatment group): 23.0 ng/mL
- Predicted AUCss in UC Patients with Severe Renal Impairment based on results from M13-551, Median ([10]; 7.5 mg treatment group): 232 ng·h/mL
- Predicted Cmax in UC Patients with Severe Renal Impairment based on results from M13-551, Median ([10]; 15 mg treatment group): 47.1 ng/mL
- Predicted AUCss in UC Patients with Severe Renal Impairment based on results from M13-551, Median ([10]; 15 mg treatment group): 492 ng·h/mL
- Predicted Cmax in UC Patients with Severe Renal Impairment based on results from M13-551, Median ([10]; 30 mg treatment group): 89.5 ng/mL
- Predicted AUCss in UC Patients with Severe Renal Impairment based on results from M13-551, Median ([10]; 30 mg treatment group): 940 ng·h/mL
- Predicted Cmax in UC Patients with Severe Renal Impairment based on results from M13-551, Median ([10]; 45 mg treatment group): 138 ng/mL
- Predicted AUCss in UC Patients with Severe Renal Impairment based on results from M13-551, Median ([10]; 45 mg treatment group): 1431 ng·h/mL
- AUCinf increase with high-fat/high-calorie meal [11]: 29%
- Accumulation after multiple once-daily administrations [11]: minimal accumulation
- Cmax increase with high-fat/high-calorie meal [11]: 39%
- Contribution of renal secretion to elimination [11]: ≤ 25%
- Dose proportionality of plasma exposures [11]: proportional to dose
- Time to steady-state plasma concentrations [11]: ≤ 4 days
- Hemoglobin decreases below 8 g/dL in at least one measurement, patients [12]: none
- Lipid changes with treatment [12]: dose-related increases in total cholesterol, triglycerides and LDL cholesterol
- Time of peak elevations in LDL and HDL cholesterol [12]: ≤ 8 Week
- Opportunistic infections (excluding tuberculosis), number of patients [13, 17]: 15 patients
- Opportunistic infections (excluding tuberculosis), rate [13, 17]: 1.4 per 100 patient-years
- Active tuberculosis, number of patients ([13]; 12-month exposure dataset, 30 mg): 1 patient
- Opportunistic infections (excluding tuberculosis), number of patients [13, 18]: 4 patients
- Opportunistic infections (excluding tuberculosis), rate [13, 18]: 3.2 per 100 patient-years
- Active tuberculosis cases ([13]; RA MTX-controlled period, 30 mg monotherapy): no active cases
- Change in mean IgG and IgM levels from baseline ([13]; RA patients, controlled period): small decreases
- Change in mean ALC from baseline ([13]; RA patients, up to Week 36): small, transient increase
- Active tuberculosis cases ([13]; RA placebo-controlled period, 30 mg): no active cases
- Opportunistic infections (excluding tuberculosis), number of patients [13, 19]: 6 patients
- Opportunistic infections (excluding tuberculosis), rate [13, 19]: 7.1 per 100 patient-years
